Test results: article PMC10746543, “Design principles for cyclin K molecular glue degraders” (Nature Chemical Biology, 2023)
“And” between values parts separate entries of the source, which are not always exact repeats. Equal entries are not always repeated. Where two headings read alike, the source gives them in different places.

Columns and labels:
CDK9–cyclin T = target: T1, CDK9–cyclin T (Homo sapiens, UniProt P50750); experiment: Lanthascreen kinase binding assay, CDK9; conditions: for Lanthascreen TR-FRET signal (raw ratio), sheet CDK9: duplicates
T1 construct: purchased Thermo Fisher
Description: Lanthascreen experiments were performed using commercially available reagents (Thermo Fisher) and according to the manufacturer’s instructions.

CDK12–cyclin K and DDB1 = target: T2, CDK12–cyclin K and DDB1 (Homo sapiens, UniProt Q16531+Q9NYV4, K965R); experiment: TR-FRET Kd determination, quadratic fit, 50 nM or 10 nM CDK12–cyclin K; assay type: binding
T2 construct: His6–CDK12 (a.a. 713–1,052); full-length or beta-propeller B domain deletion (ΔBPB: a.a. 396–705 deleted) constructs of His6–DDB1ΔBPB, StrepII–Avi–DDB1, or His6–Spy–DDB1; made in house; host or cells: Trichoplusia ni High Five insect cells (baculovirus)
Excerpt: Equation (2) is a quadratic binding equation used for Kd determination,where Top and Bottom refer to the curve plateaus. […]

[1] = Supplementary Table 2, read-out: Lanthascreen IC50 [nM] CDK9
[2] = 10 nM CDK12-cyclin K, compound 0.468 nM
[3] = 10 nM CDK12-cyclin K, compound 2.16 nM
[4] = 10 nM CDK12-cyclin K, compound 3.6 nM
[5] = 10 nM CDK12-cyclin K, compound 7.92 nM
[6] = 10 nM CDK12-cyclin K, compound 15.84 nM
[7] = 10 nM CDK12-cyclin K, compound 30.96 nM
[8] = 10 nM CDK12-cyclin K, compound 62.6399 nM
[9] = 10 nM CDK12-cyclin K, compound 125.279 nM
[10] = 10 nM CDK12-cyclin K, compound 244.8 nM
[11] = 10 nM CDK12-cyclin K, compound 993.6 nM
[12] = 10 nM CDK12-cyclin K, compound 2001.6 nM
[13] = 50 nM CDK12-cyclin K, compound 0.468 nM
[14] = 50 nM CDK12-cyclin K, compound 2.16 nM
[15] = 50 nM CDK12-cyclin K, compound 3.6 nM
[16] = 50 nM CDK12-cyclin K, compound 7.92 nM
[17] = 50 nM CDK12-cyclin K, compound 15.84 nM
[18] = 50 nM CDK12-cyclin K, compound 30.96 nM
[19] = 50 nM CDK12-cyclin K, compound 62.6399 nM
[20] = 50 nM CDK12-cyclin K, compound 125.279 nM
[21] = 50 nM CDK12-cyclin K, compound 244.8 nM
[22] = 50 nM CDK12-cyclin K, compound 993.6 nM
[23] = 50 nM CDK12-cyclin K, compound 2001.6 nM
[24] = 10 nM CDK12-cyclin K + 100 nM DDB1, n = 1

T2 sequence (Q9NYV4 713-1052 K965R): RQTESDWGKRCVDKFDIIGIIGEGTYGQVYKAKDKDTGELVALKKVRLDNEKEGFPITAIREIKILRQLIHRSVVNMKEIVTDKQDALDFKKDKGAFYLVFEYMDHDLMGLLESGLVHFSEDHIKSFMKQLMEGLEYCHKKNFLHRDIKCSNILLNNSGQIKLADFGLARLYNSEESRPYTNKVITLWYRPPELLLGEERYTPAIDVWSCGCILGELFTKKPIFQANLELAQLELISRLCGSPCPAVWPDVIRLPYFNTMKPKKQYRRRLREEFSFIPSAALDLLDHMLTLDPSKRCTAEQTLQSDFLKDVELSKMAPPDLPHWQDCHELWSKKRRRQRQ
T2 sequence (O75909 1-267 partner): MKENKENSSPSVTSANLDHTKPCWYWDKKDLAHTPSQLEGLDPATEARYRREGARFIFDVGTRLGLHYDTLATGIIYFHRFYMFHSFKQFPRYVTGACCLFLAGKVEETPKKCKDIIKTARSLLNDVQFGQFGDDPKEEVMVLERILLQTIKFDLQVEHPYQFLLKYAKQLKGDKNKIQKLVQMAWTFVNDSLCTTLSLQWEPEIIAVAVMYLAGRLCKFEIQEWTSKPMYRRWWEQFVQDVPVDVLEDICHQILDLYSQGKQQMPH
T2 sequence (Q16531 whole entry): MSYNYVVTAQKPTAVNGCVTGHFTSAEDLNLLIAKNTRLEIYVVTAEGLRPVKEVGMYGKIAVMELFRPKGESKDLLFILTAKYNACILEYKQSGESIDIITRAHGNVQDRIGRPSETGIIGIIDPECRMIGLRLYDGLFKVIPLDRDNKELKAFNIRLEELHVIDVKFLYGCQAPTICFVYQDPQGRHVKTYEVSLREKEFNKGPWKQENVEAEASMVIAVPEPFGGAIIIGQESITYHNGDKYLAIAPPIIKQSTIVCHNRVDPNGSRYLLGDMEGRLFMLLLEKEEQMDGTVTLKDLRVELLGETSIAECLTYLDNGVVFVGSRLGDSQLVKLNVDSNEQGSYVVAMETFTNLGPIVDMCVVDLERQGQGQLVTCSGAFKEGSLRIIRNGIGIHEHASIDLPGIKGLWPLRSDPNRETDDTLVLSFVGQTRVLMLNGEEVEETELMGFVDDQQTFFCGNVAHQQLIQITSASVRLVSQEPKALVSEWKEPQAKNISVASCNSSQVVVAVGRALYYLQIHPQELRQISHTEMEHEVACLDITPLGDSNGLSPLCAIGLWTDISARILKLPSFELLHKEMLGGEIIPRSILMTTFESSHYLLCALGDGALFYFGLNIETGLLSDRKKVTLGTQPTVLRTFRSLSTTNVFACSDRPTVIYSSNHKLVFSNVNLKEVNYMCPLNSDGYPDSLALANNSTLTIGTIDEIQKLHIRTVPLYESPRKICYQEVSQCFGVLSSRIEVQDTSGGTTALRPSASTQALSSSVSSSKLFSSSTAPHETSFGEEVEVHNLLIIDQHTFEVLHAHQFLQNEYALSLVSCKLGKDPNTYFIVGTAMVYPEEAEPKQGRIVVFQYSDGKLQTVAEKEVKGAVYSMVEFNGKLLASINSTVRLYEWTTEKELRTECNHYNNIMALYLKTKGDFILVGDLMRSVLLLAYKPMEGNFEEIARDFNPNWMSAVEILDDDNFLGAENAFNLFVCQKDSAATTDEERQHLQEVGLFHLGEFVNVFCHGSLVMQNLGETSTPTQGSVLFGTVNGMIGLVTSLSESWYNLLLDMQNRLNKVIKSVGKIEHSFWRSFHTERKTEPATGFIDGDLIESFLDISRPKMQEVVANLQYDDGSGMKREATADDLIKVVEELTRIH
T1 sequence (P50750 whole entry): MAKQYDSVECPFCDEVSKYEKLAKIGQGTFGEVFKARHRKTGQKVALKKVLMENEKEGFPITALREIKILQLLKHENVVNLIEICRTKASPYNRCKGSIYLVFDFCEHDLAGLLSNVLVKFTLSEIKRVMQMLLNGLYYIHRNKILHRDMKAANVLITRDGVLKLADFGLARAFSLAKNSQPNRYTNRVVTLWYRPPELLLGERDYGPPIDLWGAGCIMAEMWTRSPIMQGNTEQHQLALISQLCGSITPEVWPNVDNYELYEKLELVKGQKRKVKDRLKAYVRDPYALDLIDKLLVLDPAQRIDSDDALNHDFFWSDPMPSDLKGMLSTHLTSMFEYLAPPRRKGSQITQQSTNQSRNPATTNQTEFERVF
T1 sequence (O60563 whole entry partner): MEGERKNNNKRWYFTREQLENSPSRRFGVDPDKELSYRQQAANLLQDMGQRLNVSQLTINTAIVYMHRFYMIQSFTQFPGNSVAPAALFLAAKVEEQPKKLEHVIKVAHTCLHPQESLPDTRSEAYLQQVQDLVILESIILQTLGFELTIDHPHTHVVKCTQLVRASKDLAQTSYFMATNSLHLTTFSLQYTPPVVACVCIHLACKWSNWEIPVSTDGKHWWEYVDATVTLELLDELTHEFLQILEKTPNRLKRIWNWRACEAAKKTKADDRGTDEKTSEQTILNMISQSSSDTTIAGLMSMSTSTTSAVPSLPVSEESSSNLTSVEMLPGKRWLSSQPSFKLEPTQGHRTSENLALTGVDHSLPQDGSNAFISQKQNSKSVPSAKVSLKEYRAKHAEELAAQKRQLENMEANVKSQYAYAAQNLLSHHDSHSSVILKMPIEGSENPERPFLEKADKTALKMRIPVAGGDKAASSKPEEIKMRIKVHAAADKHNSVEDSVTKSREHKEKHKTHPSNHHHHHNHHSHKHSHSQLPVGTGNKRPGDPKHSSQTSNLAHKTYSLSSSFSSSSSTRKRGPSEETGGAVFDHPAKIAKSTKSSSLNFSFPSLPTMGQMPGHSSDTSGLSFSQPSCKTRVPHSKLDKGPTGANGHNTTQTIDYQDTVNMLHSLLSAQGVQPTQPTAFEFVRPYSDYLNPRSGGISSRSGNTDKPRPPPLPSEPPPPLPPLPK

Row | IC50 (CDK9–cyclin T; [1]) [nM] | Structure (SMILES) | TR-FRET signal (CDK12–cyclin K and DDB1; [2]) | TR-FRET signal (CDK12–cyclin K and DDB1; [3]) | TR-FRET signal (CDK12–cyclin K and DDB1; [4]) | TR-FRET signal (CDK12–cyclin K and DDB1; [5]) | TR-FRET signal (CDK12–cyclin K and DDB1; [6]) | TR-FRET signal (CDK12–cyclin K and DDB1; [7]) | TR-FRET signal (CDK12–cyclin K and DDB1; [8]) | TR-FRET signal (CDK12–cyclin K and DDB1; [9]) | TR-FRET signal (CDK12–cyclin K and DDB1; [10]) | TR-FRET signal (CDK12–cyclin K and DDB1; [11]) | TR-FRET signal (CDK12–cyclin K and DDB1; [12]) | TR-FRET signal (CDK12–cyclin K and DDB1; [13]) | TR-FRET signal (CDK12–cyclin K and DDB1; [14]) | TR-FRET signal (CDK12–cyclin K and DDB1; [15]) | TR-FRET signal (CDK12–cyclin K and DDB1; [16]) | TR-FRET signal (CDK12–cyclin K and DDB1; [17]) | TR-FRET signal (CDK12–cyclin K and DDB1; [18]) | TR-FRET signal (CDK12–cyclin K and DDB1; [19]) | TR-FRET signal (CDK12–cyclin K and DDB1; [20]) | also measured
1 | 44 | CCC(CO)Nc1nc(NCc2ccc(-c3ccccn3)cc2)c2ncn(C(C)C)c2n1 (centres unmarked) [CR8, reference compound] | 0.1037 | 0.135 | 0.1982 | 0.284 | 0.3713 | 0.4536 | 0.4778 | 0.4982 | 0.5242 | 0.5359 | 0.5508 | 0.2224 | 0.2548 | 0.3253 | 0.4723 | 0.7533 | 1.3518 | 2.31 | 2.851 | TR-FRET signal (CDK12–cyclin K and DDB1; [21]): 2.999; TR-FRET signal (CDK12–cyclin K and DDB1; [22]): 3.086; TR-FRET signal (CDK12–cyclin K and DDB1; [23]): 3.013
2 | > 10000 | Cc1cccc(Nc2nc(CC(=O)Nc3ncc(C)s3)cs2)n1 [HQ461] | – | – | – | – | – | – | – | – | – | – | – | – | – | – | – | – | – | – | – | IC50 (CDK9–cyclin T; Lanthascreen, read-out: CDK9 inhibition): > 10000 nM; Lanthascreen TR-FRET signal (raw ratio), sheet CDK9 (CDK9–cyclin T; compound 0.038147 nM, second titration set (r13)): 0.01409 and 0.01416; Lanthascreen TR-FRET signal (raw ratio), sheet CDK9 (CDK9–cyclin T; compound 0.152588 nM, second titration set (r13)): 0.01468 and 0.01413; Lanthascreen TR-FRET signal (raw ratio), sheet CDK9 (CDK9–cyclin T; compound 0.610352 nM, second titration set (r13)): 0.01464 and 0.01471; Lanthascreen TR-FRET signal (raw ratio), sheet CDK9 (CDK9–cyclin T; compound 1.02544 nM, first titration set (r1)): 0.013 and 0.01376; Lanthascreen TR-FRET signal (raw ratio), sheet CDK9 (CDK9–cyclin T; compound 3.15521 nM, first titration set (r1)): 0.01501 and 0.01445; Lanthascreen TR-FRET signal (raw ratio), sheet CDK9 (CDK9–cyclin T; compound 9.46563 nM, first titration set (r1)): 0.01436 and 0.01453; Lanthascreen TR-FRET signal (raw ratio), sheet CDK9 (CDK9–cyclin T; compound 9.76563 nM, second titration set (r13)): 0.01408 and 0.01448; Lanthascreen TR-FRET signal (raw ratio), sheet CDK9 (CDK9–cyclin T; compound 31.5521 nM, first titration set (r1)): 0.01309 and 0.01275; Lanthascreen TR-FRET signal (raw ratio), sheet CDK9 (CDK9–cyclin T; compound 39.0625 nM, second titration set (r13)): 0.01393 and 0.01389; Lanthascreen TR-FRET signal (raw ratio), sheet CDK9 (CDK9–cyclin T; compound 99.3891 nM, first titration set (r1)): 0.01397 and 0.01502; Lanthascreen TR-FRET signal (raw ratio), sheet CDK9 (CDK9–cyclin T; compound 156.25 nM, second titration set (r13)): 0.01402 and 0.0137; Lanthascreen TR-FRET signal (raw ratio), sheet CDK9 (CDK9–cyclin T; compound 315.521 nM, first titration set (r1)): 0.01247 and 0.01162; Lanthascreen TR-FRET signal (raw ratio), sheet CDK9 (CDK9–cyclin T; compound 625 nM, second titration set (r13)): 0.01303 and 0.01336; Lanthascreen TR-FRET signal (raw ratio), sheet CDK9 (CDK9–cyclin T; compound 2500 nM, second titration set (r13)): 0.01244 and 0.01203; Lanthascreen TR-FRET signal (raw ratio), sheet CDK9 (CDK9–cyclin T; compound 3155.21 nM, first titration set (r1)): 0.007103 and 0.007563; Lanthascreen TR-FRET signal (raw ratio), sheet CDK9 (CDK9–cyclin T; compound 10000 nM, second titration set (r13)): 0.01094 and 0.01086; Lanthascreen TR-FRET signal (raw ratio), sheet CDK9 (CDK9–cyclin T; compound 10002 nM, first titration set (r1)): 0.01268 and 0.01049

Row | Structure (SMILES) | IC50 (CDK9–cyclin T; [1]) [nM] | TR-FRET signal (CDK12–cyclin K and DDB1; [2]) | TR-FRET signal (CDK12–cyclin K and DDB1; [3]) | TR-FRET signal (CDK12–cyclin K and DDB1; [4]) | TR-FRET signal (CDK12–cyclin K and DDB1; [5]) | TR-FRET signal (CDK12–cyclin K and DDB1; [6]) | TR-FRET signal (CDK12–cyclin K and DDB1; [7]) | TR-FRET signal (CDK12–cyclin K and DDB1; [8]) | TR-FRET signal (CDK12–cyclin K and DDB1; [9]) | TR-FRET signal (CDK12–cyclin K and DDB1; [10]) | TR-FRET signal (CDK12–cyclin K and DDB1; [11]) | TR-FRET signal (CDK12–cyclin K and DDB1; [12]) | TR-FRET signal (CDK12–cyclin K and DDB1; [13]) | TR-FRET signal (CDK12–cyclin K and DDB1; [14]) | TR-FRET signal (CDK12–cyclin K and DDB1; [15]) | TR-FRET signal (CDK12–cyclin K and DDB1; [16]) | TR-FRET signal (CDK12–cyclin K and DDB1; [17]) | TR-FRET signal (CDK12–cyclin K and DDB1; [18]) | TR-FRET signal (CDK12–cyclin K and DDB1; [19]) | TR-FRET signal (CDK12–cyclin K and DDB1; [20]) | also measured
3 | CC[C@H](CO)Nc1nc(NCc2nc3cc(Cl)c(Cl)cc3[nH]2)c2ncn(C(C)C)c2n1 [DS17] | 3060 | 0.1296 | 0.2552 | 0.4087 | 0.5094 | 0.5468 | 0.5623 | 0.5693 | 0.582 | 0.5785 | 0.5613 | 0.5626 | 0.2322 | 0.3077 | 0.4714 | 0.8383 | 1.774 | 3.053 | 3.258 | 3.326 | Lanthascreen TR-FRET signal (raw ratio), sheet CDK9 (CDK9–cyclin T; compound 0.038147 nM, third titration set (r25)): 0.02187 and 0.01792; Lanthascreen TR-FRET signal (raw ratio), sheet CDK9 (CDK9–cyclin T; compound 0.152588 nM, third titration set (r25)): 0.02168 and 0.01994; Lanthascreen TR-FRET signal (raw ratio), sheet CDK9 (CDK9–cyclin T; compound 0.610352 nM, third titration set (r25)): 0.0196 and 0.01929; Lanthascreen TR-FRET signal (raw ratio), sheet CDK9 (CDK9–cyclin T; compound 9.76563 nM, third titration set (r25)): 0.02026 and 0.01917; Lanthascreen TR-FRET signal (raw ratio), sheet CDK9 (CDK9–cyclin T; compound 39.0625 nM, third titration set (r25)): 0.02086 and 0.01978; Lanthascreen TR-FRET signal (raw ratio), sheet CDK9 (CDK9–cyclin T; compound 156.25 nM, third titration set (r25)): 0.01948 and 0.0176; Lanthascreen TR-FRET signal (raw ratio), sheet CDK9 (CDK9–cyclin T; compound 625 nM, third titration set (r25)): 0.01695 and 0.01459; Lanthascreen TR-FRET signal (raw ratio), sheet CDK9 (CDK9–cyclin T; compound 2500 nM, third titration set (r25)): 0.01153 and 0.01174; Lanthascreen TR-FRET signal (raw ratio), sheet CDK9 (CDK9–cyclin T; compound 10000 nM, third titration set (r25)): 0.006855 and 0.006128; Kd (CDK12–cyclin K and DDB1; [24]): < 1 nM; TR-FRET Kd* (CDK12–cyclin K and DDB1; [24]): subnanomolar range; Kd (CDK12–cyclin K and DDB1; 50 nM CDK12-cyclin K + 100 nM DDB1, n = 1): < 1 nM; TR-FRET signal (CDK12–cyclin K and DDB1; [21]): 3.353; TR-FRET signal (CDK12–cyclin K and DDB1; [22]): 3.25; TR-FRET signal (CDK12–cyclin K and DDB1; [23]): 3.218
